According to the NIST ThermoML archive (doi:10.1016/j.jct.2005.11.003):
± gives the expanded uncertainty stated by the source.

Key:
[1] = xn = mol fraction of the nth substance listed; details: 298.15 K, 101 kPa, Liquid
[2] = excess molar enthalpy (molar enthalpy of mixing); xn = mol fraction of the nth substance listed; details: 298.15 K, 101 kPa, Liquid

ClCCCCCCl [1,5-dichloropentane] + CCCCOC(C)=O
[1]
Details	mass density [kg/m3]
x2 = 0.0558	1082.62 ± 0.62
x2 = 0.1119	1070.12 ± 0.62
x2 = 0.1697	1057.27 ± 0.62
x2 = 0.2268	1044.6 ± 0.62
x2 = 0.3432	1018.88 ± 0.62
x2 = 0.4608	993.04 ± 0.63
x2 = 0.5786	967.32 ± 0.66
x2 = 0.6957	941.92 ± 0.68
x2 = 0.8167	915.81 ± 0.7
x2 = 0.8757	903.13 ± 0.71
x2 = 0.9364	890.15 ± 0.73

ClCCCCCCl [1,5-dichloropentane] + CCCCOC=O
Details	excess molar enthalpy [kcal/mol]	mass density [kg/m3]
[1], x2 = 0.0616	–	1083.81 ± 0.67
[1], x2 = 0.126	–	1071.76 ± 0.72
[1], x2 = 0.1909	–	1059.46 ± 0.77
[1], x2 = 0.2522	–	1047.68 ± 0.82
[1], x2 = 0.3138	–	1035.64 ± 0.88
[1], x2 = 0.3757	–	1023.39 ± 0.93
[1], x2 = 0.4364	–	1011.18 ± 0.98
[1], x2 = 0.4966	–	998.9 ± 1
[1], x2 = 0.5548	–	986.84 ± 1.1
[1], x2 = 0.6137	–	974.47 ± 1.1
[1], x2 = 0.6701	–	962.48 ± 1.2
[1], x2 = 0.7247	–	950.68 ± 1.2
[1], x2 = 0.7822	–	938.09 ± 1.2
[1], x2 = 0.8374	–	925.86 ± 1.3
[1], x2 = 0.8906	–	913.92 ± 1.3
[1], x2 = 0.9443	–	901.66 ± 1.4
[2], x2 = 0.069	0.0113 ± 0.0011	–
[2], x2 = 0.1384	0.0179 ± 0.00129	–
[2], x2 = 0.2122	0.023 ± 0.00146	–
[2], x2 = 0.2809	0.025 ± 0.00151	–
[2], x2 = 0.3459	0.025 ± 0.00151	–
[2], x2 = 0.4058	0.0233 ± 0.00146	–
[2], x2 = 0.4619	0.0205 ± 0.00139	–
[2], x2 = 0.4922	0.0168 ± 0.00127	–
[2], x2 = 0.5374	0.0124 ± 0.00112	–
[2], x2 = 0.5877	0.0111 ± 0.00108	–
[2], x2 = 0.6417	0.00825 ± 0.001	–
[2], x2 = 0.7001	0.00729 ± 0.00098	–
[2], x2 = 0.7618	0.00571 ± 0.000908	–
[2], x2 = 0.8234	0.00366 ± 0.00086	–
[2], x2 = 0.8876	0.00206 ± 0.000813	–
[2], x2 = 0.9487	0.00105 ± 0.000765	–

ClCCCCCCCl [1,6-dichlorohexane] + CCCCOC(=O)CC
[1]
Details	mass density [kg/m3]
x2 = 0.0591	1052.23 ± 1.1
x2 = 0.1161	1041.11 ± 1
x2 = 0.1728	1030.03 ± 0.97
x2 = 0.2284	1019.22 ± 0.93
x2 = 0.345	996.62 ± 0.85
x2 = 0.4083	984.38 ± 0.81
x2 = 0.4668	973.12 ± 0.78
x2 = 0.5258	961.74 ± 0.74
x2 = 0.6403	939.75 ± 0.68
x2 = 0.6994	928.38 ± 0.66
x2 = 0.7645	915.95 ± 0.63
x2 = 0.8173	905.83 ± 0.61
x2 = 0.8835	893.21 ± 0.58
x2 = 0.9423	882.05 ± 0.56

ClCCCCCCCl [1,6-dichlorohexane] + CCCCOC(C)=O
[1]
Details	mass density [kg/m3]
x2 = 0.0673	1052.28 ± 1.1
x2 = 0.1308	1041.35 ± 1
x2 = 0.1929	1030.53 ± 1
x2 = 0.2552	1019.5 ± 0.99
x2 = 0.3164	1008.57 ± 0.96
x2 = 0.3768	997.63 ± 0.93
x2 = 0.4368	986.64 ± 0.91
x2 = 0.4966	975.54 ± 0.89
x2 = 0.554	964.77 ± 0.87
x2 = 0.6113	953.89 ± 0.85
x2 = 0.6692	942.75 ± 0.83
x2 = 0.7252	931.87 ± 0.81
x2 = 0.7823	920.59 ± 0.79
x2 = 0.8912	898.78 ± 0.76
x2 = 0.9466	887.47 ± 0.75

CCCCOC(=O)CCC [butyl butanoate] + ClCCCCCCCl
[1]
Details	mass density [kg/m3]
x1 = 0.0545	1051.6 ± 1.1
x1 = 0.1071	1040.01 ± 1
x1 = 0.16	1028.52 ± 0.98
x1 = 0.2136	1017 ± 0.94
x1 = 0.2692	1005.25 ± 0.9
x1 = 0.3239	993.9 ± 0.86
x1 = 0.3815	982.05 ± 0.82
x1 = 0.439	970.43 ± 0.79
x1 = 0.5565	947.09 ± 0.72
x1 = 0.6826	922.79 ± 0.66
x1 = 0.7398	911.99 ± 0.64
x1 = 0.803	900.24 ± 0.61
x1 = 0.8726	887.54 ± 0.59
x1 = 0.9323	876.78 ± 0.57

CCCCOC(=O)CCC [butyl butanoate] + ClCCCCCCl
[1]
Details	mass density [kg/m3]
x1 = 0.0481	1081.06 ± 0.6
x1 = 0.0957	1067.51 ± 0.59
x1 = 0.1451	1053.83 ± 0.57
x1 = 0.1939	1040.72 ± 0.56
x1 = 0.2465	1026.89 ± 0.55
x1 = 0.3533	1000.09 ± 0.52
x1 = 0.4105	986.32 ± 0.52
x1 = 0.5282	959.19 ± 0.52
x1 = 0.6536	932.02 ± 0.52
x1 = 0.7875	904.75 ± 0.53
x1 = 0.8568	891.25 ± 0.54

CCCCOC(=O)CCC [butyl butanoate] + ClCCCCCl
[1]
Details	mass density [kg/m3]
x1 = 0.0415	1117.54 ± 0.64
x1 = 0.0836	1101.67 ± 0.63
x1 = 0.1727	1070.09 ± 0.59
x1 = 0.2202	1054.28 ± 0.57
x1 = 0.322	1022.51 ± 0.54
x1 = 0.3752	1006.99 ± 0.53
x1 = 0.4319	991.17 ± 0.52
x1 = 0.4904	975.58 ± 0.52
x1 = 0.554	959.43 ± 0.52
x1 = 0.6186	943.82 ± 0.52
x1 = 0.7579	912.57 ± 0.53
x1 = 0.8338	896.78 ± 0.54
x1 = 0.9131	881.09 ± 0.54

CCCCOC(=O)CCC [butyl butanoate] + ClCCCCl
[1]
Details	mass density [kg/m3]
x1 = 0.0357	1159.7 ± 0.7
x1 = 0.0715	1141.38 ± 0.67
x1 = 0.1103	1122.7 ± 0.65
x1 = 0.1503	1104.39 ± 0.63
x1 = 0.1936	1085.72 ± 0.61
x1 = 0.2376	1067.78 ± 0.59
x1 = 0.2869	1048.84 ± 0.57
x1 = 0.3371	1030.74 ± 0.55
x1 = 0.3921	1012.12 ± 0.53
x1 = 0.4496	993.89 ± 0.52
x1 = 0.5117	975.49 ± 0.52
x1 = 0.5785	957.03 ± 0.52
x1 = 0.6494	938.78 ± 0.52
x1 = 0.7262	920.43 ± 0.53
x1 = 0.8114	901.61 ± 0.53
x1 = 0.8978	884.02 ± 0.54

CCCCOC(=O)CCC [butyl butanoate] + ClCCCl
[1]
Details	mass density [kg/m3]
x1 = 0.0297	1221.83 ± 0.57
x1 = 0.0605	1198.84 ± 0.55
x1 = 0.0933	1176.2 ± 0.52
x1 = 0.1275	1153.91 ± 0.49
x1 = 0.1649	1131.5 ± 0.47
x1 = 0.2054	1109 ± 0.45
x1 = 0.2498	1086.2 ± 0.43
x1 = 0.2967	1064.01 ± 0.42
x1 = 0.3484	1041.64 ± 0.4
x1 = 0.4037	1019.73 ± 0.39
x1 = 0.4652	997.47 ± 0.39
x1 = 0.5324	975.45 ± 0.41
x1 = 0.605	953.73 ± 0.43
x1 = 0.6862	931.87 ± 0.46
x1 = 0.7785	909.66 ± 0.49
x1 = 0.8821	887.38 ± 0.52

CCCCOC(=O)CC [butyl propanoate] + ClCCCl
[1]
Details	mass density [kg/m3]
x1 = 0.0334	1222.24 ± 0.57
x1 = 0.0679	1199.39 ± 0.55
x1 = 0.1032	1177.4 ± 0.52
x1 = 0.1419	1154.78 ± 0.5
x1 = 0.1821	1132.96 ± 0.48
x1 = 0.2255	1110.88 ± 0.46
x1 = 0.2719	1088.82 ± 0.44
x1 = 0.3218	1066.84 ± 0.43
x1 = 0.3754	1044.9 ± 0.41
x1 = 0.4321	1023.34 ± 0.4
x1 = 0.4959	1001.02 ± 0.4
x1 = 0.5617	979.72 ± 0.42
x1 = 0.636	957.49 ± 0.44
x1 = 0.7142	936.1 ± 0.46
x1 = 0.804	913.62 ± 0.49
x1 = 0.8938	893.14 ± 0.52
